Assay results from patent US9937198B2, “Multi-functional composition and preparation method and application thereof” (Suzhou Sciscape Bio-Pharmaceutical Technology Co., Ltd., priority 2013, dated 2018).

Legend:
diabetic mice = assay: Reduction of blood glucose in streptozotocin diabetic mice; format: in vivo; conditions: for Blood glucose level at different time points after administration: 13.3 mL/kg intragastric at 9 am and 9 pm every day; for Blood glucose level before administration: baseline, STZ diabetic mice
Method: (§1) Male ICR mice, 8 weeks old, 20±2 g in body weight, were purchased from Beijing HFK Bioscience Co., Ltd.
Also, the solutions of Compositions 1-7 were used in this Example.
I. Modeling: Before experiment started, a 0.1 mol/L sodium citrate buffer (pH4.5) was prepared. It was sterilized in an autoclave and then stored in a refrigerator at 4° C. Before the modeling began, this sodium citrate buffer was used to freshly prepare a 10 mg/mL solution of streptozotocin (STZ) in an ice bath. The mice were fed normally for 3 days, and then they were intraperitoneally administered with the freshly prepared STZ solution at a dose of 45 mg/kg for 5 consecutive days once a day.
II. Treatment: After the model was successfully established, the mice had not been administered with streptozotocin solution were arranged in a group, i.e., the normal group, and normally fed. The diabetic mice were randomly divided into 11 groups depending on blood glucose level, the groups being a model group, administration groups 1 to 7 and negative control groups 1 to 3. The mice in administration groups 1 to 7 were respectively intragastrically given the solution of Composition 1 to 7 prepared in this Example at a dose of 13.3 mL/kg body weight. The mice in the model group were intragastrically given sterile water for medical use at a dose of 13.3 mL/kg body weight. The mice in negative control groups 1 to 3 were respectively intragastrically administered with the solution of trehalose (0.15 g/mL), the solution of validamycin (0.3 mg/mL) and the solution of algal polysaccharides (0.15 g/mL) at a dose of 13.3 mL/kg body weight. The administration was conducted at 9 am and 9 pm every day, and blood glucose level was checked by Roche blood glucose meter once every other week for 5 weeks.

Male ICR mice = assay: In vivo absorption: blood glucose in fasted normal mice after intragastric administration; conditions: for Blood glucose level after administration: 13.3 mL/kg intragastric; for Blood glucose level before administration: baseline, mice fasted 12 h; for blood glucose level compared to the blank control group: before or after administration, normal mice
Method: as §1
The composition used in the present experiment example was the solution of Composition 1. In particular, 15 g of trehalose and 3 mg of validamycin were picked and then dissolved in 100 mL of sterile water for medical use to provide the solution of Composition 1 which was kept for future use.
After normally fed for 3 days, the mice fasted for 12 h with water sufficiently supplied. Then, they were randomly divided into 4 groups depending on the blood glucose, i.e., a blank control group, an administration group, and negative control group 1 and negative control group 2. The mice in the administration group were intragastrically given the solution of Composition 1 prepared in this experimental example at a dose of 13.3 mL/kg body weight while the mice in the blank control group were intragastrically given sterile water for medical use at a dose of 13.3 mL/kg body weight. In addition, the mice in negative control group 1 and 2 were respectively intragastrically given the solution of trehalose (0.15 g/mL) and the solution of validamycin (0.3 mg/mL) at the same dose of 13.3 mL/kg body weight. The blood glucose levels before administration and 10 min, 25 min, 40 min and 60 min post administration were measured respectively, and the results were shown in Table 2.

normal mice = assay: Acetic acid writhing (pain) in normal mice; format: in vivo; conditions: for Time of initial writhing: 13.3 mL/kg intragastric, 0.6% acetic acid i.p. 20 min later; for Pain inhibition ratio: relative to number of writhings in blank control group; for Number of writhings: within 30 min after acetic acid injection
Excerpt: Male ICR mice, 8 weeks old and 20±2 g in body weight, were purchased from Beijing HFK Bioscience Co., Ltd.
(§2) The solutions of Compositions 1 to 7 prepared in this example were used.
After mice were normally fed for 3 days, they were randomly divided into 11 groups depending on body weight, i.e., a blank control group, administration groups 1 to 7 and negative control groups 1 to 3, by body weight. The mice in administration groups 1 to 7 were intragastrically given the solutions of Compositions 1 to 7 respectively at a dose of 13.3 mL/kg body weight while the mice in the blank control group were intragastrically given sterile water for medical use at a dose of 13.3 mL/kg body weight. The mice in negative control groups 1 to 3 were intragastrically given the solution of trehalose (0.15 g/mL), the solution of validamycin (0.3 mg/mL) and the solution of algal polysaccharides (0.15 g/mL) at a dose of 13.3 mL/kg body weight respectively. Twenty minutes after the administration, the mice were intraperitoneally administered with 0.2 ml of solution of acetic acid (0.6%). Then, the number of writhing and time when initial writhing occurred in mice were observed within 30 min after injection of acetic acid solution and the pain inhibition ratio (pain inhibition ratio=(number of writhings in the blank control group—number of writhings in the administration group)/number of writhings in the blank control group) was calculated.

ovariectomized rats = assay: Osteoporosis amelioration in ovariectomized rats; format: in vivo; conditions: femur, 13.3 mL/kg once a day for 30 days
Excerpt: Female SD rats, 250 g to 280 g in body weight, were purchased from Shanghai Sippr-BK Lab Animal Co., Ltd.
as §2
After receiving ovariectomy, rats were fed normally for one week. By body weight, the rats were randomly divided into 11 groups, i.e., a blank control group, administration groups 1 to 7 and negative control groups 1 to 3. The rats in administration groups 1 to 7 were intragastrically administered with the solutions of Compositions 1 to 7 respectively at a dose of 13.3 mL/kg body weight while the rats in the blank control group were intragastrically given sterile water for medical use at a dose of 13.3 mL/kg body weight. The rats in negative control groups 1 to 3 were intragastrically given the solution of trehalose (0.15 g/mL), the solution of validamycin (0.3 mg/mL) and the solution of algal polysaccharides (0.15 g/mL) at a dose of 13.3 mL/kg body weight respectively. Administration was conducted once a day and lasted for 30 days. Normal rats were arranged in a normal group and fed normally all the time. Twenty to 30 min post last administration, all rats were killed by cervical vertebrae dislocation, and their femurs were taken out. Then, the bone density and mineral content in the femur were determined.

Row | SMILES | Blood glucose level at different time points after administration (diabetic mice; 1 week) | Blood glucose level at different time points after administration (diabetic mice; 2 weeks) | Blood glucose level at different time points after administration (diabetic mice; 3 weeks) | Blood glucose level at different time points after administration (diabetic mice; 4 weeks) | Blood glucose level at different time points after administration (diabetic mice; 5 weeks) | Blood glucose level before administration (diabetic mice) | Blood glucose level after administration (Male ICR mice; 10 min) | Blood glucose level after administration (Male ICR mice; 25 min) | Blood glucose level after administration (Male ICR mice; 40 min) | Blood glucose level after administration (Male ICR mice; 60 min) | Blood glucose level before administration (Male ICR mice) | blood glucose level compared to the blank control group (Male ICR mice) | Time of initial writhing (normal mice) | Pain inhibition ratio (normal mice) | Number of writhings (normal mice) | Bone density (ovariectomized rats) | Mineral content (ovariectomized rats)
1 | OC[C@H]1O[C@H](O[C@H]2O[C@H](CO)[C@@H](O)[C@H](O)[C@H]2O)[C@H](O)[C@@H](O)[C@@H]1O [trehalose] | 22.15 ± 2.14 mmol/L | 24.50 ± 2.35 mmol/L | 25.33 ± 2.15 mmol/L | 26.47 ± 2.12 mmol/L | 27.16 ± 1.01 mmol/L | 18.40 ± 2.07 mmol/L | 6.4 ± 0.40 mmol/L | 9.5 ± 1.00 mmol/L | 11.0 ± 0.30 mmol/L | 9.5 ± 1.12 mmol/L | 4.9 ± 0.53 mmol/L | increased significantly | 3.4 ± 1.1 min | 0.0% | 51.3 ± 1.6 | 0.1037 ± 0.0211 g/cm^2 | 0.1245 ± 0.0374 g/cm
2 | OCC1=C[C@H](N[C@H]2C[C@H](CO)[C@@H](O[C@@H]3O[C@H](CO)[C@@H](O)[C@H](O)[C@H]3O)[C@H](O)[C@H]2O)[C@H](O)[C@@H](O)[C@@H]1O [validamycin] | 20.20 ± 2.11 mmol/L | 22.51 ± 2.28 mmol/L | 23.57 ± 2.06 mmol/L | 23.57 ± 1.07 mmol/L | 24.01 ± 1.25 mmol/L | 18.27 ± 2.13 mmol/L | 5.3 ± 0.45 mmol/L | 5.7 ± 0.56 mmol/L | 5.2 ± 0.23 mmol/L | 5.3 ± 0.20 mmol/L | 5.2 ± 0.44 mmol/L | no significant difference | 3.6 ± 1.6 min | 0.0% | 51.9 ± 2.1 | 0.1063 ± 0.0222 g/cm^2 | 0.1212 ± 0.0311 g/cm
